Where “and” joins values, the source holds several entries; their conditions need not be identical. Equal values may be shown once. Blank lines part the entries; values can stand above or below the compound they belong to.
What was measured:
[1] = target: tauP301L insoluble and soluble species (Homo sapiens, UniProt P10636, P618L); assay: Triton X-100-based insoluble/soluble fractionation; assay type: cell-based; conditions: 2.5 μM 24 h, HCQ 10 μM
Procedure: SH-SY5Y-tau BiFC cells were treated with PBA-1105, PBA and YTK-1105 to determine the degraded fraction of Tau. Using a cell lysis buffer (20 mM HEPES pH 7.9, 0.2 M KCl, 1 mM MgCl2, 1 mM EGTA, 1% Triton X-100, 10% glycerol, protease inhibitor and phosphatase inhibitor), the cells were collected and incubated on ice for 15 min, followed by centrifugation at 13,000 g for 10 min at 4 °C. The supernatant was collected as the soluble fraction and the pellet as the insoluble fraction. Using PBS, the insoluble fraction was washed 4 times and lysed with a SDS-detergent lysis buffer (20 mM HEPES pH 7.9, 0.2 M KCl, 1 mM MgCl2, 1 mM EGTA, 1% Triton x-100, 1% SDS, 10% glycerol, protease inhibitors and phosphatase inhibitors). 5X Laemmli sample buffer was added to the soluble and insoluble samples and boiled for 10 min at 100 °C and loaded on a SDS-PAGE gel.

[2] = test system: ERβ signaling (EGFR, p-ERK/ERK, p-Akt/Akt); assay: WB of ERβ downstream signaling in E2-stimulated LNCaP cells; assay type: cell-based; conditions: levels of EGFR
From the text: (§1) To assess the therapeutic efficacy of autophagy-targeting degraders, we compared the downstream signaling of AR and ERβ in cells treated with either AUTOTACs or their cognate TBLs. Dihydrotestosterone (DHT) and estradiol (E2) are natural agonists that respectively bind AR and ERβ and induce their dimerization and nuclear translocation, resulting in transcriptional activation of downstream proteins[27],[28]. […] Next, we examined the potency of AUTOTACs in cancer cell growth and progression.
(§2) Adherent cells were washed with phosphate-buffered saline (PBS) and cell pellets were lysed in SDS-based sample buffer (277.8 mM Tris-HCI, pH 6.8, 4.4% LDS, 44.4% (v/v) glycerol) containing beta-mercaptoethanol. Alternatively, cell pellets or protein supernatants were lysed in 5X Laemmli sample buffer. Whole-cell lysates were separated using SDS-PAGE, and transferred onto polyvinyllidene difluoride membranes at 100 V for 2 h at 4 °C.

[3] = test system: AR pathways (EGFR, p-Akt/Akt); assay: WB of AR downstream signaling in DHT-activated cells; assay type: cell-based; conditions: levels of EGFR and p-Akt/Akt
From the text: as §1, §2

[4] = target: T1, androgen receptor (AR) (Homo sapiens, UniProt P10275, T878A); assay: Western blot degradation of AR in LNCaP cells; assay type: cell-based; conditions: for DC50: LNCaP prostate cancer cells; for AR normalized to control, AVG % / AR normalized to GAPDH and to control, percentage: LncaP; for AR normalized to GAPDH and to control, percentage: single experiments, listed as Vinclo.-2204
T1 construct: Targeted autophagic degradation of endogenous oncoproteins by AUTOTAC; endogenous in cells; host or cells: LNCaP
T1 sequence (P10275 1-920 T878A): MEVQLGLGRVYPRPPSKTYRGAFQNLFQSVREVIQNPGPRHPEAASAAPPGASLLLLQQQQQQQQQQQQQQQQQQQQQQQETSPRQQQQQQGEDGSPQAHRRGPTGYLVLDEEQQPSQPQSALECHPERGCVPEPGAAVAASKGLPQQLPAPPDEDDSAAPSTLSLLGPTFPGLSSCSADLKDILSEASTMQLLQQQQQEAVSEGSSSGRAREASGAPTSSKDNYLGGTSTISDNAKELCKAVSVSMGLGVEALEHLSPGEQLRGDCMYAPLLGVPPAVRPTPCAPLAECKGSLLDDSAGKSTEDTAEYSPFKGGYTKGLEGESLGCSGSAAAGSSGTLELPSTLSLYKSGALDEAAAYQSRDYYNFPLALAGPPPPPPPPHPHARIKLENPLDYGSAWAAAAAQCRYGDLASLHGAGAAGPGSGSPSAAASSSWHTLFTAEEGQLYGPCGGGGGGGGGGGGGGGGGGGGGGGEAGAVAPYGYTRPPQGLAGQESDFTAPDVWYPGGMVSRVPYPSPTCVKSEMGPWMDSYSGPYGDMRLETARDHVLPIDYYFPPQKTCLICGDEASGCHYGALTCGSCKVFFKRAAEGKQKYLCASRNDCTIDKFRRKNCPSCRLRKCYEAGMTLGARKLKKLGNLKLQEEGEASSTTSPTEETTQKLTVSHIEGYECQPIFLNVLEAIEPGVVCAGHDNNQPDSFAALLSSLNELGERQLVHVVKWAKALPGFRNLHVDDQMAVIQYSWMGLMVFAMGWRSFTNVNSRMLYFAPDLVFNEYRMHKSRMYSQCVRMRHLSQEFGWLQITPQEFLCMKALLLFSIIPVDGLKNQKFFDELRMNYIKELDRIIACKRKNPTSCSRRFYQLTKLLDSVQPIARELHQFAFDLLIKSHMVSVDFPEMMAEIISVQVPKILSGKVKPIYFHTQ
Procedure: Adherent cells were washed with phosphate-buffered saline (PBS) and cell pellets were lysed in SDS-based sample buffer (277.8 mM Tris-HCI, pH 6.8, 4.4% LDS, 44.4% (v/v) glycerol) containing beta-mercaptoethanol. Alternatively, cell pellets or protein supernatants were lysed in 5X Laemmli sample buffer. Whole-cell lysates were separated using SDS-PAGE, and transferred onto polyvinyllidene difluoride membranes at 100 V for 2 h at 4 °C. The membrane was incubated with a blocking solution consisting 4% skim milk in PBS solution for 30 min at room temperature and incubated with primary antibodies overnight, followed by incubation with host-specific HRP-conjugated secondary antibodies (1:10000 dilution). For signal detection, the membrane was developed with a mixture of ECL solution (Thermo Fisher Scientific) using X-ray films. Densitometry of developed bands was measured and analyzed with ImageJ (NIH, Bethesda).

[5] = WST-based cell viability assay in LNCaP cells; conditions: human, LNCaP cells
[6] = test system: LNCaP cells; assay: WST-based cell viability assay in LNCaP cells; conditions: LNcaP, duplicates; for WST assay raw reading: listed as Vinclo.-2204
[7] = WST assay viability relative to con = 100, LNcaP, duplicates
[8] = WST assay viability, AVG %, LNcaP

Chain of tauP301L insoluble and soluble species (P10636 1-441 isoform P10636-8 P301L): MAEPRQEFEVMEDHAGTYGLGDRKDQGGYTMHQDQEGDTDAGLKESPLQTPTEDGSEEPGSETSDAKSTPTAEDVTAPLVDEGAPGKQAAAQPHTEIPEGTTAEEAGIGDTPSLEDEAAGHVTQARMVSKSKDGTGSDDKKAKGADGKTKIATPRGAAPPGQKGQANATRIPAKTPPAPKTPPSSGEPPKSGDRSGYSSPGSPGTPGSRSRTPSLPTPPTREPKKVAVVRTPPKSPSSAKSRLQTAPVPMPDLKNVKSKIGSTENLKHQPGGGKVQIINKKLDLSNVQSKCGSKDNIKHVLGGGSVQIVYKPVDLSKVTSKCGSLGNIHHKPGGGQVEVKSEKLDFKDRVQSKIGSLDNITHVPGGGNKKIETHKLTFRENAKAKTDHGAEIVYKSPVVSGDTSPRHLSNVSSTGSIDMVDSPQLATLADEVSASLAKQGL

SMILES: O=C(CCCc1ccccc1)NCCOCCOCCOCCNCc1ccc(OCc2ccccc2)c(OCc2ccccc2)c1 [PBA-1105]
autophagic degradation of detergent-soluble and -insoluble tauP301L [1]: promoted autophagic degradation of not only detergent-soluble but critically also -insoluble species

SMILES: O[C@H](CNCCOCCOCCOc1ccc(-c2c(-c3ccccc3)nn3c(C(F)(F)F)cc(C(F)(F)F)nc23)cc1)COc1ccc(OCc2ccccc2)c(OCCCc2ccccc2)c1 [PHTPP-1304]
inhibition of ERβ signaling relative to its TBL [2]: 10 folds

DC50 [4]: ~200 nM | DC50 ([4]; listed as Vinclozolin-2204): 211 nM | AR normalized to control, AVG % ([4]; 10 nM): 98.914% | AR normalized to GAPDH and to control, percentage ([4]; 10 nM): 90.6238% and 111.624% and 94.4939% | AR normalized to control, AVG % ([4]; 50 nM): 121.781% | AR normalized to GAPDH and to control, percentage ([4]; 50 nM): 119.329% and 128.663% and 117.351% | AR normalized to control, AVG % ([4]; 100 nM): 60.0788% | AR normalized to GAPDH and to control, percentage ([4]; 100 nM): 61.0357% and 62.8026% and 56.3981% | AR normalized to control, AVG % ([4]; 0.5 uM): 19.2601% | AR normalized to GAPDH and to control, percentage ([4]; 0.5 uM): 14.6016% and 23.3958% and 19.7827% | AR normalized to control, AVG % ([4]; 1 uM): 23.6569% | AR normalized to control, AVG % ([4]; 2.5 uM): 22.3824% | AR normalized to control, AVG % ([4]; 10 uM): 6.006% | AR normalized to GAPDH and to control, percentage ([4]; 10 uM): 9.375% and 3.388% and 5.255%
SMILES: C=CC(C)(O)C(=O)N(C(=O)NCCOCCOCCNCC(O)COc1ccc(OCCc2ccccc2)c(OCCc2ccccc2)c1)c1cc(Cl)cc(Cl)c1 (stereo not drawn) [VinclozolinM2-2204]
inhibition of AR pathways relative to its TBL [3]: approximately 4 folds | IC50 [5]: 4700 nM | viability at 0.01 µM [5, 7]: 93.5% | viability at 0.1 µM [5, 7]: 92.5% | viability at 1 µM [5, 7]: 89.8% | viability at 10 µM [5, 7]: 24.6% | viability at 50 µM [5, 7]: 1.83% | viability at 100 µM [5, 7]: 3.03% | viability at 0.01 µM [5, 8]: 92.9% | viability at 0.1 µM [5, 8]: 91.6% | viability at 1 µM [5, 8]: 89.9% | viability at 10 µM [5, 8]: 30.9% | viability at 50 µM [5, 8]: 1.93% | viability at 100 µM [5, 8]: 3.08% | WST assay raw reading ([6]; 0.01uM): 1.976 and 1.95 | WST assay viability relative to con = 100 ([6]; 0.01uM, listed as Vinclo.-2204, 0.01 µM): 92.2257 | WST assay raw reading ([6]; 0.1uM): 1.955 and 1.92 | WST assay viability relative to con = 100 ([6]; 0.1uM, listed as Vinclo.-2204, 0.1 µM): 90.7275 | WST assay raw reading ([6]; 1uM): 1.902 and 1.905 | WST assay viability relative to con = 100 ([6]; 1uM, listed as Vinclo.-2204, 1 µM): 89.9784 | WST assay raw reading ([6]; 10uM): 0.595 and 0.848 | WST assay viability relative to con = 100 ([6]; 10uM, listed as Vinclo.-2204, 10 µM): 37.1899 | WST assay raw reading ([6]; 50uM): 0.14 and 0.144 | WST assay viability relative to con = 100 ([6]; 50uM, listed as Vinclo.-2204, 50 µM): 2.031 | WST assay raw reading ([6]; 100uM): 0.164 and 0.166 | WST assay viability relative to con = 100 ([6]; 100uM, listed as Vinclo.-2204, 100 µM): 3.13
